Values quoted from earlier work as cited in EP2535049A1 (Proyecto de Biomedicina Cima, S.L., priority 2011, dated 2012).

Settings: Kulkarni and Patil 2004; Forgue et al., 2006; cited from earlier work

CCCc1nc(C)c2c(=O)[nH]c(-c3cc(S(=O)(=O)N4CCN(CC)CC4)ccc3OCC)nn12 [vardenafil]
half-life in blood serum: 3.4 h
